Data taken from PubChem BioAssay AID1963865 (Molecular Pharmacology Branch, DTP, NCI, 2024).

Tested on: KRAS PDC multicell spheroid viability
Test: Anticancer human tumor 825966-067-R-J1-PDC patient-derived colon carcinoma cell line growth inhibition [KRAS2]
Settings: for IC50: curve of first compound; for viability, T/C: stronger effect = lower value
In short: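 Combination screen of spheroid viability in tumor-cell co-cultures with endothelial (HUVEC) and mesenchymal stem cell stroma. Each agent was tested in half-log dilutions, topping at clinical Cmax or at 10 microM without a known Cmax.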
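Further: spheroids exposed to compounds for 7 days.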
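Wherever viability, T/C is given: 100% = DMSO vehicle control viability.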

## Cn1nccc1Nc1nccc(-c2cc3c(s2)C(C)(C)N(CCN2CCOCC2)C3=O)n1 + CC1OCC2(CCN(c3cnc(Sc4ccnc(N)c4Cl)c(N)n3)CC2)C1N
Second compound 0.1 µM
  IC50: > 10 µM
Second compound 0.316 µM
  IC50: > 10 µM
Second compound 1 µM
  IC50: > 10 µM
Second compound 3.16 µM
  IC50: > 10 µM
Second compound 10 µM
  IC50: 0.085 µM
Second compound 0.1 µM, first compound 0.0316 µM
  viability, T/C: 125%
Second compound 0.1 µM, first compound 0.1 µM
  viability, T/C: 97.3%
Second compound 0.1 µM, first compound 0.316 µM
  viability, T/C: 128%
Second compound 0.1 µM, first compound 1 µM
  viability, T/C: 95.8%
Second compound 0.1 µM, first compound 3.16 µM
  viability, T/C: 104%
Second compound 0.1 µM, first compound 10 µM
  viability, T/C: 68.5%
Second compound 0.316 µM, first compound 0.0316 µM
  viability, T/C: 88.8%
Second compound 0.316 µM, first compound 0.1 µM
  viability, T/C: 124%
Second compound 0.316 µM, first compound 0.316 µM
  viability, T/C: 131%
Second compound 0.316 µM, first compound 1 µM
  viability, T/C: 104%
Second compound 0.316 µM, first compound 3.16 µM
  viability, T/C: 87.4%
Second compound 0.316 µM, first compound 10 µM
  viability, T/C: 77.3%
Second compound 1 µM, first compound 0.0316 µM
  viability, T/C: 93%
Second compound 1 µM, first compound 0.1 µM
  viability, T/C: 115%
Second compound 1 µM, first compound 0.316 µM
  viability, T/C: 106%
Second compound 1 µM, first compound 1 µM
  viability, T/C: 81.9%
Second compound 1 µM, first compound 3.16 µM
  viability, T/C: 89.2%
Second compound 1 µM, first compound 10 µM
  viability, T/C: 63.3%
Second compound 3.16 µM, first compound 0.0316 µM
  viability, T/C: 107%
Second compound 3.16 µM, first compound 0.1 µM
  viability, T/C: 130%
Second compound 3.16 µM, first compound 0.316 µM
  viability, T/C: 92.3%
Second compound 3.16 µM, first compound 1 µM
  viability, T/C: 56.6%
Second compound 3.16 µM, first compound 3.16 µM
  viability, T/C: 59%
Second compound 3.16 µM, first compound 10 µM
  viability, T/C: 77%
Second compound 10 µM, first compound 0.0316 µM
  viability, T/C: 80.4%
Second compound 10 µM, first compound 0.1 µM
  viability, T/C: 45%
Second compound 10 µM, first compound 0.316 µM
  viability, T/C: 14.4%
Second compound 10 µM, first compound 1 µM
  viability, T/C: 6.71%
Second compound 10 µM, first compound 3.16 µM
  viability, T/C: 12.1%
Second compound 10 µM, first compound 10 µM
  viability, T/C: 43.9%
